In patent US20070004689A1, “Antiangiogenic agents” (priority 2004, published 2007):
Where two headings read alike, the source gives them in different places.

What was measured:
U87-MG a human glioma = assay: Proliferation assay, U87-MG; assay type: cell-based; details: proliferation, read-out: U87-MG (IC50 μM)
Excerpt: (§1) Cell Culture: Human umbilical vein endothelial cells (HUVEC) were obtained from Clonetics (San Diego, Calif.), MCF7 cells were the kind gift of Dr. Dorraya El Ashry (University of Michigan), MDA-MB-231 a human breast carcinoma, PC3 a human prostate carcinoma, and U87-MG a human glioma, cell lines were obtained from ATCC. HUVEC cultures were maintained for up to 5 passages in EGM containing bovine brain extract (Clonetics) and 1× antibiotic-antimycotic (BioWhittaker, Walkersville, Md.). MDA-MB-231, PC3, U87-MG and MCF-7 cells were maintained in DMEM/F12 (1:1) containing 10% (v/v) fetal bovine serum (Hyclone Laboratories, Logan, Utah) and 1× antibiotic-antimycotic. MCF7 cells were used between passage 60 and passage 100.
(§2) Proliferation Assays: Proliferation was measured by cell counting using a Coulter Zl cell counter (Coulter Corporation, Hialeah, Fla.) or by evaluation of DNA synthesis. Each condition was done in triplicate and experiments were repeated at least twice. To determine estrogenicity of the analogs, MCF7 estrogen-dependent proliferation assays were performed. The cells were seeded in complete media at 10,000 cells/well in a 24 well plate after allowing the cells to adhere overnight and the seeding density was determined by cell counts. Cells were washed with PBS (37° C.) and starved by placing them in IMEM-phenol red free media containing 2% charcoal-dextran fetal bovine-stripped serum (Valley Biomedical, Winchester, Va.) and 1× antibiotic-antimycotic. After 3 days of starvation, cells were treated with or without increasing concentrations of compounds, replacing the media every 2-3 days and counted after 7 days of treatment. In order to ensure that only the added test compounds stimulated growth, experiments were performed only with cell cultures that duplicated less than once during the starvation period. Values are expressed as MCF7 stimulation index (SI) relative to 2ME2 (defined as 1.00). A value less than 1.00 indicates reduced estrogenicity. Estradiol is used as a positive control.
(§3) To determine anti-tumor and anti-angiogenic activities of the analogs, proliferation assays were performed by evaluating detection of DNA synthesis by use of the 5-bromo-2′-deoxyuridine (BrdU) cell proliferation colorimetric ELISA kit from Roche (Indianapolis, Ind.) according to the manufacturer's instructions. For BrdU assays, the cells were seeded at 1,000 cells/well (MDA-MB-231, anti-tumor activity) or 3,000 cells/well (HUVEC, anti-angiogenic activity) in a 96 well plate, allowed to attach overnight and then exposed to the compound for 48 h. IC50 value is the concentration at which cell proliferation is inhibited by 50%.
(§4) Antiproliferative activity of the NCEs were assessed in tumor cell lines (MDA-MB-231 a breast carcinoma, PC3 a prostate carcinoma and U87-MG a glioma) and endothelial cells (HUVEC).

[1] = tested on: PC3 a human prostate carcinoma; assay: Proliferation assay, PC3; assay type: cell-based; details: proliferation, read-out: PC3 (IC50 μM)
Excerpt: as §1, §2, §3, §4

[2] = tested on: human hepatocyte suspensions; assay: Hepatocyte incubations, human; assay type: in vitro ADME; details: human hepatocytes, NR = no reaction; for Hepatocyte Human 60/120′ (1 uM): 60′ / Hepatocyte Human 60/120′ (5 uM): 60′: 60 minutes; for Hepatocyte Human 60/120′ (1 uM): 120′ / Hepatocyte Human 60/120′ (5 uM): 120′: 120 minutes
Protocol: Hepatocyte Incubations: An in vitro measure of metabolism using cells from rat and human liver. Rat and human hepatocyte suspensions (10^6 cells per mL of serum-free (H)CL15 culture medium) were incubated with 2 concentrations (1 and 5 μM) of each of the compounds. Stock solutions were prepared in DMSO, and were further diluted in culture medium to the final test concentrations. 7-Ethoxycoumarin (7-EC) were included as a positive control substrate for P450. A 0.1 M 7-EC stock solution was prepared in DMSO, and the final assay concentration was 100 μM. The reactions were initiated by the addition of the substrates, incubated at 37° C., and terminated after 0, 60 and 120 minutes by addition of acetonitrile. The positive 7-EC control reactions were stopped with perchloric acid or ZnSO4 and BaOH after 60-minutes of incubation. The reaction mixture was centrifuged to remove the cell debris, and the supernatant was used for subsequent analysis by HPLC/LC-MS. If necessary, the supernatants were flash frozen in liquid N2 and stored at −70° C. until further analysis. HPLC was used to analyze product formation from 7-EC. Analyses to determine the concentration of the test compounds were carried out using reverse phase HPLC with tandem mass spectrometric detection (LC-MS/MS). Samples were analyzed to measure the disappearance of parent compound over time. The rate of metabolism was estimated by fitting a curve to the data for each concentration against time using GraphPad Prism Version 3.02 software.

MCF7 cells = assay: MCF7 estrogen-dependent proliferation assay (estrogenicity); assay type: cell-based, human; details: stimulation index, 2ME2 defined as 1.00; less than 1.00 = reduced estrogenicity; 7 days of treatment
Excerpt: as §1
as §2, with “[…].” for “Values are expressed as MCF7 stimulation index (SI) relative to 2ME2 (defined as 1.00). A value less than 1.00 indicates reduced estrogenicity.”

[3] = Rat pharmacokinetics, cassette dosing, oral; assay type: in vivo; details: oral 5 mg/kg, plasma
Protocol: Pharmokinetics (PK): PO Cmax is the maximal concentration of drug achieved after oral administration in rats and AUC is the area under the curve. These parameters are an indication of oral bioavailability. PK parameters were determined using a cassette-dosing approach. A group of new chemical entities (NCEs) (usually 3-6 molecules) was dissolved in DMSO or ethanol and diluted with a solution of a dextrin polymer to the final working concentration (usually 0.2-2 mg/mL). Groups of three rats with in-dwelling catheters were dosed either orally (5 mg/kg) or i.v. (1 mg/kg) with the cassette of NCEs. Blood was collected at nine time points from 2 minutes to 24 hours. Plasma was separated and aliquots of the replicate samples were pooled for analysis. Plasma proteins were precipitated by addition of organic solvent (most often methanol or acetonitrile). For some analogs, an acid modifier was added to the precipitation mixture to enhance recovery. Precipitated proteins were removed by centrifugation and the supernatant was injected onto a C18 reversed phase column attached to an LC-MS-MS mass spectrometer. Analytes were partly resolved by a rapid (5 minute) gradient of organic modifier. Analytes were measured as either positive or negative ions, depending on ionization characteristics, in the SRM (or MS-MS) mode. Quantification was carried out by correlation of peak heights or areas for each analyte to a set of concentration standards of the same analytes diluted into blank plasma. Concentration vs. time data was analyzed by WinNonLin.

Row | IC50 (U87-MG a human glioma) [µM] | IC50 [1] [µM] | Hepatocyte Human 60/120′ (1 uM): 60′ [2] | Hepatocyte Human 60/120′ (5 uM): 60′ [2] | Cmax [3] [nM] | Rat PO AUC (nM) [3] [µM·h] | Structure (SMILES) | Hepatocyte Human 60/120′ (1 uM): 120′ [2] | Hepatocyte Human 60/120′ (5 uM): 120′ [2] | MCF7 SI Relative to 2ME2 (MCF7 cells) | IC50 (U87-MG a human glioma; Homo sapiens, U-87 MG) [µM] | IC50 ([1]; Homo sapiens) [µM] | AUC ([3]; rat) [µM·h] | Cmax ([3]; rat) [nM]
1 | 0.23 ± 0.08 | 0.21 ± 0.1 | 52 | 92 | 127 | 0.961 | COc1cc2c(cc1C(N)=O)CC[C@@H]1[C@@H]2CC[C@]2(C)C=CC[C@@H]12 [Compound 63, 3-carboxamide-2-methoxy-1,3,5(10)16-estratetraene] | 70 | 71 | 0.28 |  |  |  | 
2 | 10 ± 2.49 | 5.7 ± 0.58 | 111 | 117 | 130 | 0.624 | COc1cc2c(cc1C(N)=O)CC[C@@H]1[C@@H]2CC[C@]2(C)CCC[C@@H]12 [Compound 57, (2-Methoxyestra-1,3,5(10)-trien-3-yl)-3-carboxamide] | 98 | 118 | 0.31 |  |  |  | 

Row | Structure (SMILES) | IC50 (U87-MG a human glioma) [µM] | IC50 [1] [µM] | Hepatocyte Human 60/120′ (1 uM): 60′ [2] | Hepatocyte Human 60/120′ (5 uM): 60′ [2] | Cmax [3] [nM] | Rat PO AUC (nM) [3] [µM·h] | Hepatocyte Human 60/120′ (1 uM): 120′ [2] | Hepatocyte Human 60/120′ (5 uM): 120′ [2] | MCF7 SI Relative to 2ME2 (MCF7 cells) | IC50 (U87-MG a human glioma; Homo sapiens, U-87 MG) [µM] | IC50 ([1]; Homo sapiens) [µM] | AUC ([3]; rat) [µM·h] | Cmax ([3]; rat) [nM]
3 | C=C1CC[C@H]2[C@@H]3CCc4cc(C(N)=O)c(OC)cc4[C@H]3CC[C@]12C [Compound 60, 2-Methoxy-17-methyleneestra-1,3,5(10)-triene-3-carboxamide] |  |  |  | 96 |  |  | 91 | 93 | 0.26 | 0.25 ± 0.02 | 0.25 ± 0.01 | 1.4 | 185
4 | COc1cc2c(cc1C(N)=O)CC[C@@H]1[C@@H]2CC[C@]2(C)C(=O)CC[C@@H]12 [Compound 54, 2-methoxy-17-oxoestra-1,3,5(10)-triene-3-carboxamide] |  |  | 99 |  |  |  | 102 | 103 | 0.26 | 2.23 ± 0.4 | 4.64 ± 0.9 | 0.185 | 47
